# Test results as given in EP1764363A2, “Substituted acetophenonederivatives” (Riemser Arzneimittel AG, priority 2005, dated 2007).
# “And” between values parts separate entries of the source, which are not always exact repeats. Equal values may be shown once. Marks after values point to notes of the source that are not given here.
# Columns and labels:
# Salmonella sp = assay: Minimal inhibitory concentration (MHK), microtitre plate, TTC staining; type: cell-based; details: 48h, 36°C
# Source text: Das Inokulum für die Tests wurde durch Verdünnung der Mikroorganismen in wässriger 0,85% NaCI-Lösung hergestellt, die Verdünnung auf die Stufe 0,5 nach McFarland eingestellt und die Konzentration spektrometrisch bei einer Wellenlänge von 580nm überprüft. Die Zellsuspensionen wurden zur Verwendung in den Tests auf 10^4 UFC/ml verdünnt. Die MHK-Tests erfolgten (Vorschrift nach J. N. P. Eloff, Planta Medica, Vol. 64, 1998, p 711-713) in Mikrotiterplatten mit 96 Vertiefungen. Serienverdünnungen der Konzentrationen lagen im Bereich 1,00 - 0,0015 mg/mL. Als Kontrollsubstanzen dienten Chloramphenicol bzw. Nistatin (Merck) in einer Konzentration von 0,062 - 0,005 mg/ml bzw. 0,0125 - 0,001 mg/ml. Das Inokulum (100 µl) wurde in alle Vertiefungen gegeben und die Platten für 48h bei 36°C inkubiert. Die antimikrobielle Aktivität wurde durch Zugabe von 20 µl einer 0,5% igen wässrigen Lösung von TTC (Tetrazoliumchlorid, Merck) pro Vertiefung detektiert. Die minimale Hemmkonzentration (MHK) wird als die niedrigste Konzentration der Verbindung definiert die das sichtbare Wachstum hemmt (durch TTC-Färbung indiziert).
# Micrococcus luteus = assay: as above; type: cell-based; details: 48h, 36°C
# S. aureus = assay: as above; type: cell-based; details: 48h, 36°C
# Rhodococcus equi = assay: as above; type: cell-based; details: 48h, 36°C
# Bacillus subitilis = assay: as above; type: cell-based; details: 48h, 36°C
# S. epidermides = assay: as above; type: cell-based; details: 48h, 36°C
# S. falcium = assay: as above; type: cell-based; details: 48h, 36°C
# Escherichia coli = assay: as above; type: cell-based; details: 48h, 36°C
# E. faecium = assay: as above; type: cell-based; details: 48h, 36°C
# Colo205 [1] = assay: Cell count determination in a proliferation test; details: Homo sapiens, COLO 205, read-out: Inhibition des Zellenwachstums (in %)
# Source text: (§1) Die Verbindungen wurden in Dimethylsulfoxid (DMSO) als konzentrierte Stammlösungen (100-400fach) gelöst und für Proliferationstests in Zellkulturmedium verdünnt.
# (§2) Mit Ausnahme von SIM, KAL Ewingsarkom (in Wien etabliert) und LAN Neuroblastom (University of Los Angeles) wurden die Zell-Linien von der American Type Culture Collection (ATCC, Rockville, MD) bezogen und zum Erhalt von konfluenten Monolayerkulturen in RPMI-1640 Bikarbonatmedium (Seromed, Berlin, Deutschland) in einem Zellkulturschrank (5% CO2, 37°C) kultiviert. […] Die Zellen wurden auf Verunreinigung durch Mycoplasmen untersucht. Das Medium wurde mit 10% hitzeinaktiviertem foetalem Kälberserum (Seromed) and 4 mM Glutamin ergänzt. Die Zellen wurden durch Trypsinierung subkultiviert (0.03% Trypsin enthaltend 0.02% EDTA, dreimal pro Woche). Die Trypsinierung wurde durch Verwendung vom komplettem Zellkulturmedium gestoppt. Die Zellzahl wurde unter Verwendung eines TOA Sysmex Microzellzählers (TOA, Tokyo, Japan) bestimmt.
# (§3) Die Zellen wurden in Makroplatten mit 6 Vertiefungen (Greiner, Kremsmünster, Österreich) in einer anfänglichen Zelldichte von 200 000 Zellen/Vertiefung in 4 ml Medium unter Zellkulturbedingungen in Anwesenheit oder Abwesenheit der Testverbindungen (doppelte Ansätze) kultiviert. […]
# SIM = assay: Chemosensitivity test (modified MTT test EZ4U); details: Homo sapiens, 96 h, read-out: IC50-Werte
# Source text: as §1
# (§4) Mit Ausnahme von SIM, KAL Ewingsarkom (in Wien etabliert) und LAN Neuroblastom (University of Los Angeles) wurden die Zell-Linien von der American Type Culture Collection (ATCC, Rockville, MD) bezogen und zum Erhalt von konfluenten Monolayerkulturen in RPMI-1640 Bikarbonatmedium (Seromed, Berlin, Deutschland) in einem Zellkulturschrank (5% CO2, 37°C) kultiviert. Mit der Ausnahme der murinen NlH3T3 Fibroblasten sind alle verwendeten Zell-Linien humanen Ursprungs. Die Zellen wurden auf Verunreinigung durch Mycoplasmen untersucht. Das Medium wurde mit 10% hitzeinaktiviertem foetalem Kälberserum (Seromed) and 4 mM Glutamin ergänzt. Die Zellen wurden durch Trypsinierung subkultiviert (0.03% Trypsin enthaltend 0.02% EDTA, dreimal pro Woche). Die Trypsinierung wurde durch Verwendung vom komplettem Zellkulturmedium gestoppt. Die Zellzahl wurde unter Verwendung eines TOA Sysmex Microzellzählers (TOA, Tokyo, Japan) bestimmt.
# (§5) 10^4 Zellen/well wurden in Mikrotiterplatten mit 96 Vertiefungen (100 µl Medium) verteilt und die zu testenden Verbindungen wurden in einem weiteren Volumen von 100 µl hinzugegeben. […]
# SKOV3 = assay: Chemosensitivity test (modified MTT test EZ4U); details: Homo sapiens, SK-OV-3, 96 h, read-out: IC50-Werte
# Method: as §1
# (§6) Die Zellen wurden auf Verunreinigung durch Mycoplasmen untersucht. Das Medium wurde mit 10% hitzeinaktiviertem foetalem Kälberserum (Seromed) and 4 mM Glutamin ergänzt. Die Zellen wurden durch Trypsinierung subkultiviert (0.03% Trypsin enthaltend 0.02% EDTA, dreimal pro Woche). Die Trypsinierung wurde durch Verwendung vom komplettem Zellkulturmedium gestoppt. Die Zellzahl wurde unter Verwendung eines TOA Sysmex Microzellzählers (TOA, Tokyo, Japan) bestimmt.
# (§7) 10^4 Zellen/well wurden in Mikrotiterplatten mit 96 Vertiefungen (100 µl Medium) verteilt und die zu testenden Verbindungen wurden in einem weiteren Volumen von 100 µl hinzugegeben. Alle Verbindungen wurden entweder in 3 fixen Konzentrationen eingesetzt (für Tabellen 1-3) oder in 10 Stufen verdünnt unter Verwendung von Zweifachverdünnungsschritten zur Bestimmung der IC50-Werte (dreifache Ansätze, in den meisten Fällen vierfache Ansätze). […]
# LAN1 = assay: Chemosensitivity test (modified MTT test EZ4U); details: Homo sapiens, LAN1, 96 h, read-out: IC50-Werte
# Method: as §1, §6, §7
# SW620 = assay: Chemosensitivity test (modified MTT test EZ4U); details: Homo sapiens, SW-620, 96 h, read-out: IC50-Werte
# Method: as §1, §6
# (§8) 10^4 Zellen/well wurden in Mikrotiterplatten mit 96 Vertiefungen (100 µl Medium) verteilt und die zu testenden Verbindungen wurden in einem weiteren Volumen von 100 µl hinzugegeben. Alle Verbindungen wurden entweder in 3 fixen Konzentrationen eingesetzt (für Tabellen 1-3) oder in 10 Stufen verdünnt unter Verwendung von Zweifachverdünnungsschritten zur Bestimmung der IC50-Werte (dreifache Ansätze, in den meisten Fällen vierfache Ansätze). Die Platten wurden, mit der Ausnahme der Tests zur Untersuchung des Zusammenhangs von Applikationsdauer und Zellreaktion, 4 Tage lang unter Zellkulturbedingungen inkubiert und die Zellviabilität wurde unter Verwendung eines modifizierten MTT Tests bestimmt (Formazan-Farbstoffbildung aus Tetrazoliumsalzen wie MTT, XTT, WST-1 und anderen durch das mitochondriale Reduktionsystem Succinattetrazolium Reductase EC 1.3.99.1.; EZ4U nichtradioaktiver Zellproliferations- und Cytotoxizitätstest, Biomedica, Wien, Österreich; Testmanual unter: www.bmgrp.com). Hierbei wurde die mitochondriale Aktivität und dadurch die Zellviabilität/Zellzahl bestimmt. Kurz gesagt wurde das gelieferte Substrat in einer Aktivatorlösung gelöst und 20 µl der Mischung wurden für 2 Stunden pro Vertiefung hinzugegeben (Gesamtvolumen 200 µl). Die optische Dichte wurde bei 450 nm unter Verwendung einer leeren Vertiefung als Referenz in einem Mikroplattenlesegerät (Eurogenetics, Brüssel, Belgien) bestimmt. Für jede Zell-Line wurden Vertiefungen verwendet um das MTT-Signal der Mediumkontrollen ohne Testsubstanzen zu bestimmen. Die Proliferation in den Test-Vertiefungen wurde in Bezug auf diese Kontrollwerte (100%) errechnet. Die Testergebnisse wurden zwischen 0,3 und 1,5 optischer Dichte für langsam bzw. schnellproliferierende Zellen erfasst. Diese Dosis-Wirkungs-Beziehungen wurden verwendet um die IC50 (Konzentration bei der das Wachstum um 50% gehemmt wird) unter Verwendung von PRISM Scientific Software (GraphPad Inc., San Diego, CA) zu berechnen.
# BT20 [2] = assay: Cell count determination in a proliferation test; details: Homo sapiens, BT-20, read-out: Inhibition des Zellenwachstums (in %)
# Source text: as §1, §2, §3
# CRO2B = assay: Chemosensitivity test (modified MTT test EZ4U); details: Homo sapiens, 96 h, read-out: IC50-Werte
# Method: as §1, §6, §8
# U87MG = assay: Chemosensitivity test (modified MTT test EZ4U); details: Homo sapiens, U-87 MG, 96 h, read-out: IC50-Werte
# Source text: as §1, §4, §5
# Colo205 [3] = assay: Chemosensitivity test (modified MTT test EZ4U); details: for Zellwachstum in % der Mediumkontrolle: 4 days
# Method: as §1, §6, §8
# T47D [4] = assay: Chemosensitivity test (modified MTT test EZ4U); details: for Zellwachstum in % der Mediumkontrolle: 4 days
# Method: as §1, §6, §8
# CaCo-2 = assay: Chemosensitivity test (modified MTT test EZ4U); details: Homo sapiens, Caco-2, 96 h, read-out: IC50-Werte
# Method: as §1, §6, §8
# LNCaP = assay: Chemosensitivity test (modified MTT test EZ4U); details: Homo sapiens, 96 h, read-out: IC50-Werte
# Source text: as §1, §4, §5
# WI38 = assay: Chemosensitivity test (modified MTT test EZ4U); details: for IC50: Homo sapiens, WI-38, 96 h, read-out: IC50-Werte; for Zellwachstum in % der Mediumkontrolle: 4 days
# Method: as §1, §6, §8
# KAL = assay: Chemosensitivity test (modified MTT test EZ4U); details: Homo sapiens, 96 h, read-out: IC50-Werte
# Source text: as §1, §4, §5
# J82 = assay: Chemosensitivity test (modified MTT test EZ4U); details: Homo sapiens, J82, 96 h, read-out: IC50-Werte
# Method: as §1, §6, §7
# MIAPaCa2 = assay: Chemosensitivity test (modified MTT test EZ4U); details: for IC50: Homo sapiens, MIA PaCa-2, 96 h, read-out: IC50-Werte; for Zellwachstum in % der Mediumkontrolle: 4 days
# Method: as §1, §6, §8
# EW-7 = assay: Chemosensitivity test (modified MTT test EZ4U); details: Homo sapiens, 96 h, read-out: IC50-Werte
# Source text: as §1, §4, §5
# T47D [5] = assay: Cell count determination in a proliferation test; details: Homo sapiens, read-out: Inhibition des Zellenwachstums (in %)
# Source text: as §1, §2, §3
# Candida albicans = assay: Minimal inhibitory concentration (MHK), microtitre plate, TTC staining; type: cell-based; details: 48h, 36°C
# [6] = Radical scavenger screening with DPPH radicals (DPPH test); details: Konzentrationen 500 und 1000µg/ml
# Source text: […] die 6 Verbindungen HMF2, HMF-3, CH-1, L5, Q20 und […]. Die […] durch den DPPH-Test ermittelt, wobei sich die UV/VIS-Absorption des freien stabilen […] (Diphenyl-β-picrylhydrazin) in Abhängigkeit vom Zustand von […]. Die Auswertung erfolgt qualitativ (dünnschichtchromatographisch) und quantitativ (photometrisch) mit Ascorbinsäure […] Molyneux P. (2004) The use of the stabel free radical diphenylpicrylhydrazyl (DPPH) for estimating antioxidant activity. Songklanakarin J Sci Technol. 26(2): 211-219).
# [7] = test system: Staphylococcus aureus (Stamm ATCC 6538); assay: Mouse ear test (in vivo), antiseptic effect; parameters: key to Keimwachstum (grade): +++: totale Verhinderung des Keimwachstums; ++: Keimwachstum deutlich reduziert aber nicht völlig unterdrückt; details: mouse ears infected with S. aureus ATCC 6538; germ count vs infected untreated animal after 18 and 24 h
# MDA-MB435 = assay: Chemosensitivity test (modified MTT test EZ4U); details: Homo sapiens, MDA-MB-435, 96 h, read-out: IC50-Werte
# Source text: as §1, §4, §5
# DU 145 = assay: Chemosensitivity test (modified MTT test EZ4U); details: Homo sapiens, DU-145, 96 h, read-out: IC50-Werte
# Source text: as §1, §4, §5
# BxPC3 = assay: Chemosensitivity test (modified MTT test EZ4U); details: Homo sapiens, BXPC-3, 96 h, read-out: IC50-Werte
# Source text: as §1, §4, §5
# HT29 = assay: Chemosensitivity test (modified MTT test EZ4U); details: Homo sapiens, HT-29, 96 h, read-out: IC50-Werte
# Source text: as §1, §4, §5
# BT20 [8] = assay: Chemosensitivity test (modified MTT test EZ4U); details: Homo sapiens, BT-20, 96 h, read-out: IC50-Werte
# Source text: as §1, §4, §5
smiles,measurement,setting,value
"O=C(N[C@H](CO)[C@H](O)c1ccc([N+](=O)[O-])cc1)C(Cl)Cl [Chloramphenicol, reference compound]",MHK-Werte,Salmonella sp,"0,06 mg/ml"
same,MHK-Werte,Micrococcus luteus,"0,05 mg/ml"
same,MHK-Werte,S. aureus,"0,02 mg/ml"
same,MHK-Werte,Rhodococcus equi,"0,04 mg/ml"
same,MHK-Werte,Bacillus subitilis,"0,02 mg/ml"
same,MHK-Werte,S. epidermides,"0,04 mg/ml"
same,MHK-Werte,S. falcium,"0,12 mg/ml"
same,MHK-Werte,Escherichia coli,"0,04 mg/ml"
same,MHK-Werte,E. faecium,"0,12 mg/ml"
"O=C(/C=C/c1ccc(CO)o1)c1ccccc1O [HMF-3, 3-(5-Hydroxymethylfuran-2-yl)-1-(2-hydroxyphenyl)-propenon]",inhibition at 50 µg/mL,Colo205 [1],3.5%
same,IC50,SIM,> 200 µg/mL
same,IC50,SKOV3,> 200 µg/mL
same,IC50,LAN1,20 µg/mL
same,IC50,SW620,9.7 µg/mL
same,inhibition at 50 µg/mL,BT20 [2],15.7%
same,IC50,CRO2B,> 200 µg/mL
same,IC50,U87MG,> 200 µg/mL
same,Zellwachstum in % der Mediumkontrolle,"Colo205 [3]; Colo205 (Colon), 5 µg/ml",68%
same,Zellwachstum in % der Mediumkontrolle,"Colo205 [3]; Colo205 (Colon), 10 µg/ml","82,60%"
same,Zellwachstum in % der Mediumkontrolle,"Colo205 [3]; Colo205 (Colon), 2,5 µg/ml","85,90%"
same,Zellwachstum in % der Mediumkontrolle,"T47D [4]; T47D (Mamakarzinom), 5 µg/ml","50,00%"
same,Zellwachstum in % der Mediumkontrolle,"T47D [4]; T47D (Mamakarzinom), 10 µg/ml","50,20%"
same,Zellwachstum in % der Mediumkontrolle,"T47D [4]; T47D (Mamakarzinom), 2,5 µg/ml","39,10%"
same,IC50,CaCo-2,> 200 µg/mL
same,IC50,LNCaP,9.5 µg/mL
same,IC50,WI38,20 µg/mL
same,Zellwachstum in % der Mediumkontrolle,"WI38; WI38 (Fibroblasten), 5 µg/ml","64,70%"
same,Zellwachstum in % der Mediumkontrolle,"WI38; WI38 (Fibroblasten), 10 µg/ml","81,50%"
same,Zellwachstum in % der Mediumkontrolle,"WI38; WI38 (Fibroblasten), 2,5 µg/ml",92%
same,IC50,KAL,> 200 µg/mL
same,IC50,J82,> 200 µg/mL
same,IC50,MIAPaCa2,> 200 µg/mL
same,Zellwachstum in % der Mediumkontrolle,"MIAPaCa2; MIAPaCa2 (Pankreas), 5 µg/ml","81,80%"
same,Zellwachstum in % der Mediumkontrolle,"MIAPaCa2; MIAPaCa2 (Pankreas), 10 µg/ml","50,60%"
same,Zellwachstum in % der Mediumkontrolle,"MIAPaCa2; MIAPaCa2 (Pankreas), 2,5 µg/ml","84,10%"
same,IC50,EW-7,5.25 µg/mL
same,inhibition at 50 µg/mL,T47D [5],57%
"CC(=C(C#N)C#N)c1ccc(O)cc1 [OK, 2-[1-(4-Hydroxyphenyl)ethyliden]malonitril]",MHK-Werte,Micrococcus luteus,"0,12-0,25 mg/ml"
same,MHK-Werte,S. aureus,"0,25-0,5 mg/ml"
same,MHK-Werte,Rhodococcus equi,"0,5-1,0 mg/ml"
same,MHK-Werte,Bacillus subitilis,"0,12-0,25 mg/ml"
same,MHK-Werte,S. epidermides,"0,03-0,06 mg/ml"
same,MHK-Werte,S. falcium,"0,5-1,0 mg/ml"
same,MHK-Werte,Escherichia coli,"0,5-1,0 mg/ml"
same,MHK-Werte,E. faecium,"0,12-0,25 mg/ml"
same,MHK-Werte,Candida albicans,"0,5-1,0 mg/ml"
"CC(C)=CCOc1ccccc1C(C)=C(C#N)C#N [L5, 2-{1-[2-(3-Methylbut-2-enyloxy}phenyl]ethyliden}-malononitril]",Radikalfänger-Effekt,[6],60%
same,Keimwachstum (grade),[7],+++
"COc1ccc(C=CC(=O)c2ccccc2O)cc1 [CH-1, 1-(2-Hydroxyphenyl)-3-(4-methoxyphenyl)propenon]",Keimwachstum (grade),[7],++
"CC(C)=CCOc1ccc(C(C)=C(C#N)C#N)cc1 [LPK1, 2-{1-[4-(3-Methylbut-2-enyloxy)phenyl]ethyiliden}-malononitril]",MHK-Werte,Salmonella sp,"> 1,5 mg/ml"
same,MHK-Werte,Micrococcus luteus,"> 1,5 mg/ml"
same,MHK-Werte,S. aureus,"> 1,5 mg/ml"
same,MHK-Werte,Rhodococcus equi,"> 1,5 mg/ml"
same,MHK-Werte,Bacillus subitilis,"> 1,5 mg/ml"
same,MHK-Werte,S. epidermides,"0,5-1,0 mg/ml"
same,MHK-Werte,S. falcium,"> 1,5 mg/ml"
same,MHK-Werte,Escherichia coli,"> 1,5 mg/ml"
same,MHK-Werte,E. faecium,"> 1,5 mg/ml"
same,MHK-Werte,Candida albicans,"> 1,5 mg/ml"
"COc1cc(C2CC(=O)c3ccccc3O2)ccc1OCC=C(C)C (stereo not shown) [Q25, 2-[3-Methoxy-4-(3-methylbut-2-enyloxy)phenyl]chroman-4-on]",IC50,SW620,84 µg/mL
same,IC50,CRO2B,6 µg/mL
same,IC50,"Colo205 [3]; Homo sapiens, COLO 205, 96 h, read-out: IC50-Werte",75 µg/mL
same,IC50,"T47D [4]; Homo sapiens, T47D, 96 h, read-out: IC50-Werte",10 µg/mL
same,IC50,MDA-MB435,34 µg/mL
same,IC50,CaCo-2,18 µg/mL
same,IC50,DU 145,15 µg/mL
same,IC50,BxPC3,80 µg/mL
same,IC50,HT29,18 µg/mL
same,Keimwachstum (grade),[7],++
same,Keimwachstum reduziert auf,[7],30%
same,IC50,BT20 [8],45 µg/mL
same,IC50,WI38,8.2 µg/mL
same,IC50,MIAPaCa2,57 µg/mL
"C[C@@H]1[C@H](O)[C@@H](C)/C=C/C=C/CC/C=C/C=C/C=C/C=C/C(O[C@H]2O[C@H](C)[C@@H](O)[C@H](N)[C@@H]2O)CC2O[C@](O)(CC(O)C(O)CCC(O)CC(O)CC(O)CC(=O)O[C@H]1C)CC(O)C2C(=O)O (stereo partly shown) [Nistatin, reference compound]",MHK-Werte,Candida albicans,"0,05** mg/ml and 0,12** mg/ml"
"O=C(/C=C/c1ccc(CO)o1)c1ccc(Cl)cc1 [HMF-2, 1-(4-Chlorophenyl)-3-(5-hydroxymethylfuran-2-yl)propenon]",inhibition at 50 µg/mL,Colo205 [1],35.6%
same,IC50,SIM,> 200 µg/mL
same,IC50,SKOV3,36 µg/mL
same,IC50,LAN1,4.25 µg/mL
same,IC50,SW620,0.85 µg/mL
same,inhibition at 50 µg/mL,BT20 [2],74%
same,IC50,CRO2B,50 µg/mL
same,IC50,U87MG,> 200 µg/mL
same,Zellwachstum in % der Mediumkontrolle,"Colo205 [3]; Colo205 (Colon), 5 µg/ml","78,6%"
same,Zellwachstum in % der Mediumkontrolle,"Colo205 [3]; Colo205 (Colon), 10 µg/ml","41,30%"
same,Zellwachstum in % der Mediumkontrolle,"Colo205 [3]; Colo205 (Colon), 2,5 µg/ml","84,80%"
same,Zellwachstum in % der Mediumkontrolle,"T47D [4]; T47D (Mamakarzinom), 5 µg/ml","25,60%"
same,Zellwachstum in % der Mediumkontrolle,"T47D [4]; T47D (Mamakarzinom), 10 µg/ml","4,90%"
same,Zellwachstum in % der Mediumkontrolle,"T47D [4]; T47D (Mamakarzinom), 2,5 µg/ml","28,10%"
same,IC50,CaCo-2,17.5 µg/mL
same,IC50,LNCaP,3.25 µg/mL
same,Keimwachstum (grade),[7],+++
same,IC50,WI38,4.9 µg/mL
same,Zellwachstum in % der Mediumkontrolle,"WI38; WI38 (Fibroblasten), 5 µg/ml","92,90%"
same,Zellwachstum in % der Mediumkontrolle,"WI38; WI38 (Fibroblasten), 10 µg/ml","10,60%"
same,Zellwachstum in % der Mediumkontrolle,"WI38; WI38 (Fibroblasten), 2,5 µg/ml","104,7%"
same,IC50,KAL,45 µg/mL
same,IC50,J82,47 µg/mL
same,IC50,MIAPaCa2,10 µg/mL
same,Zellwachstum in % der Mediumkontrolle,"MIAPaCa2; MIAPaCa2 (Pankreas), 5 µg/ml","91,10%"
same,Zellwachstum in % der Mediumkontrolle,"MIAPaCa2; MIAPaCa2 (Pankreas), 10 µg/ml","74,60%"
same,Zellwachstum in % der Mediumkontrolle,"MIAPaCa2; MIAPaCa2 (Pankreas), 2,5 µg/ml","84,30%"
same,IC50,EW-7,0.3 µg/mL
same,inhibition at 50 µg/mL,T47D [5],75.6%
